This assay concerns the target AgrA (Staphylococcus aureus, UniProt P0A0I7). In words: cell-based. Set-up: species or system S. aureus USA300 strain UAMS-1625. The settings on record: for Ratio IC50 (in presence of HSA)/IC50 (in absence of HSA): 40 mg/mL HSA vs without HSA.
[1] abbreviates: IC50 at 40 mg/mL HSA, LB medium supplemented with 40 mg/mL human serum albumin.
Where [2] appears, read: IC50 without HSA, LB medium, without HSA.

Where only a bound is given, the exact number is not on record here.

Sequence of AgrA (P0A0I7 whole entry): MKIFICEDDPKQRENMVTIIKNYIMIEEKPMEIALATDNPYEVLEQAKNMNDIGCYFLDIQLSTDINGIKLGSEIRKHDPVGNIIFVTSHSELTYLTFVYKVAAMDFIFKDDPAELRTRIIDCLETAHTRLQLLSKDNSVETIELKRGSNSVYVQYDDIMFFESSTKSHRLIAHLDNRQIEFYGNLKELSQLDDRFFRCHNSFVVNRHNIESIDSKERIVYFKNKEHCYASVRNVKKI

For orientation: IC50 means the concentration needed to halve the response being measured. High values mean a need for much substance, low ones inhibition by little substance. With `Cc1ccc(S(=O)(=O)c2nnn3c2[nH]c(=O)c2ccc(N4C[C@H]5CNC[C@H]5C4)cc23)c(C)c1` [Compound 40, 8-[(3aR,6aS)-octahydropyrrolo[3,4-c]pyrrol-2-yl]-3-(2,4-dimethylbenzenesulfonyl)-4H,5H-[1,2,3]triazolo[1,5-a]quinazolin-5-one], the “Ratio IC50 (in presence of HSA)/IC50 (in absence of HSA)” value (“Ratio IC50 (in presence of HSA)/IC50” below) is “+++ (ratio ≤ 25)”. Under setting [1], the concentration for half-maximal inhibition (IC50) lay within 21.5 to 108 µM. Under setting [2], this compound came in with a half-inhibitory concentration (IC50) of 2.15 to 10.8 µM.
`Cc1ccc(S(=O)(=O)c2nnn3c2[nH]c(=O)c2ccc(N4CCN(C(C)(C)C)CC4)cc23)c(C)c1` [Compound 41, 8-(4-tert-butylpiperazin-1-yl)-3-(2,4-dimethylbenzenesulfonyl)-4H,5H-[1,2,3]triazolo[1,5-a]quinazolin-5-one]: the “Ratio IC50 (in presence of HSA)/IC50” value is recorded as “+++ (ratio ≤ 25)”. Besides, under setting [1], the concentration for half-maximal inhibition (IC50) was 20.2 to 101 µM. The compound also returned a concentration for half-maximal inhibition (IC50) under setting [2] of 2.02 to 10.1 µM.
On to `COCCN1CCN(c2ccc3c(=O)[nH]c4c(S(=O)(=O)c5ccc(C)cc5C)nnn4c3c2)CC1` [Compound 42, 3-(2,4-dimethylbenzenesulfonyl)-8-[4-(2-methoxyethyl)piperazin-1-yl]-4H,5H-[1,2,3]triazolo[1,5-a]quinazolin-5-one], for which the “Ratio IC50 (in presence of HSA)/IC50” value is “+++ (ratio ≤ 25)”. Further, the IC50 under setting [1] lay in the range of 20.1 to 101 µM. Under setting [2], this compound registered an IC50 of 2.01 to 10.1 µM.
In the case of `Cc1ccc(S(=O)(=O)c2nnn3c2[nH]c(=O)c2ccc(N4CCN(CCO)CC4)cc23)c(C)c1` [Compound 43, 3-(2,4-dimethylbenzenesulfonyl)-8-[4-(2-hydroxyethyl)piperazin-1-yl]-4H,5H-[1,2,3]triazolo[1,5-a]quinazolin-5-one], the “Ratio IC50 (in presence of HSA)/IC50” value is reported as “++ (ratio ≤ 125)”. The compound further yielded an IC50 under setting [1] of 20.7 to 104 µM. This compound also displayed an IC50 under setting [2] of less than 2.07 µM.
With `Cc1ccc(S(=O)(=O)c2nnn3c2[nH]c(=O)c2ccc(N4CCN(C(C)CO)CC4)cc23)c(C)c1` (stereo not shown) [Compound 44, 3-(2,4-dimethylbenzenesulfonyl)-8-[4-(1-hydroxypropan-2-yl)piperazin-1-yl]-4H,5H-[1,2,3]triazolo[1,5-a]quinazolin-5-one], the “Ratio IC50 (in presence of HSA)/IC50” value is recorded as “++ (ratio ≤ 125)”. In addition, under setting [1], the concentration for half-maximal inhibition (IC50) was 20.1 to 101 µM. In addition, the IC50 under setting [2] is less than 2.01 µM.
As for `Cc1ccc(S(=O)(=O)c2nnn3c2[nH]c(=O)c2ccc(N4CCN(CCOCCO)CC4)cc23)c(C)c1` [Compound 45, 3-(2,4-dimethylbenzenesulfonyl)-8-{4-[2-(2-hydroxyethoxy)ethyl]piperazin-1-yl}-4H,5H-[1,2,3]triazolo[1,5-a]quinazolin-5-one], the “Ratio IC50 (in presence of HSA)/IC50” value is on record as “+++ (ratio ≤ 25)”. The compound also had an IC50 under setting [1] of 19 to 94.9 µM. In addition, under setting [2], the half-maximal inhibitory concentration (IC50) is less than 1.9 µM.
For the compound `Cc1ccc(S(=O)(=O)c2nnn3c2[nH]c(=O)c2ccc(N4CCCN(CCO)CC4)cc23)c(C)c1` [Compound 46, 3-(2,4-dimethylbenzenesulfonyl)-8-[4-(2-hydroxyethyl)-1,4-diazepan-1-yl]-4H,5H-[1,2,3]triazolo[1,5-a]quinazolin-5-one], the “Ratio IC50 (in presence of HSA)/IC50” value is “+++ (ratio ≤ 25)”. The compound also yielded an IC50 under setting [1] of 20.1 to 101 µM. Also, under setting [2], the IC50 was less than 2.01 µM.
With `Cc1ccc(S(=O)(=O)c2nnn3c2[nH]c(=O)c2ccc(N4CCCNCC4)cc23)c(C)c1` [Compound 47, 8-(1,4-diazepan-1-yl)-3-(2,4-dimethylbenzenesulfonyl)-4H,5H-[1,2,3]triazolo[1,5-a]quinazolin-5-one], the “Ratio IC50 (in presence of HSA)/IC50” value is on record as “+++ (ratio ≤ 25)”. Moreover, under setting [1], the half-maximal inhibitory concentration (IC50) is less than 22.1 µM. The same compound returned an IC50 under setting [2] of less than 2.21 µM.
With `Cc1ccc(S(=O)(=O)c2nnn3c2[nH]c(=O)c2ccc(N4CCCOCC4)cc23)c(C)c1` [Compound 48, 3-(2,4-dimethylbenzenesulfonyl)-8-(1,4-oxazepan-4-yl)-4H,5H-[1,2,3]triazolo[1,5-a]quinazolin-5-one], the “Ratio IC50 (in presence of HSA)/IC50” value is recorded as “++ (ratio ≤ 125)”. This compound came in with an IC50 under setting [1] of 22 to 110 µM. Under setting [2], the 50% inhibitory concentration (IC50) is less than 2.2 µM.
Take `Cc1ccc(S(=O)(=O)c2nnn3c2[nH]c(=O)c2ccc(N4CCCN(C)CC4)cc23)c(C)c1` [Compound 49, 3-(2,4-dimethylbenzenesulfonyl)-8-(4-methyl-1,4-diazepan-1-yl)-4H,5H-[1,2,3]triazolo[1,5-a]quinazolin-5-one]: the “Ratio IC50 (in presence of HSA)/IC50” value was “+++ (ratio ≤ 25)”. Under setting [1], this compound yielded a concentration for half-maximal inhibition (IC50) of 21.4 to 107 µM. Under setting [2], the IC50 was in the range of 2.14 to 10.7 µM.
With `Cc1ccc(S(=O)(=O)c2nnn3c2[nH]c(=O)c2ccc(N4CC5CCC(C4)N5)cc23)c(C)c1` [Compound 50], the IC50 was less than 21.5 µM under setting [1] and 2.15 to 10.8 µM under setting [2].
On to `Cc1ccc(S(=O)(=O)c2nnn3c2[nH]c(=O)c2ccc(N4CCN(CC(F)(F)F)CC4)cc23)c(C)c1` [Compound 51, 3-(2,4-dimethylbenzenesulfonyl)-8-[4-(2,2,2-trifluoroethyl)piperazin-1-yl]-4H,5H-[1,2,3]triazolo[1,5-a]quinazolin-5-one], for which the “Ratio IC50 (in presence of HSA)/IC50” value is given as “++ (ratio ≤ 125)”. Moreover, the IC50 under setting [1] is 19.2 to 96.1 µM. This compound showed an IC50 under setting [2] of less than 1.92 µM.
For `Cc1ccc(S(=O)(=O)c2nnn3c2[nH]c(=O)c2ccc(N4CCN(C(=O)C(C)C)CC4)cc23)c(C)c1` [Compound 52, 3-(2,4-dimethylbenzenesulfonyl)-8-[4-(2-methylpropanoyl)piperazin-1-yl]-4H,5H-[1,2,3]triazolo[1,5-a]quinazolin-5-one] the same measures were “+++ (ratio ≤ 25)”, 19.7 to 98.3 µM and less than 1.97 µM.
Regarding `Cc1ccc(S(=O)(=O)c2nnn3c2[nH]c(=O)c2ccc(N4CCN(C)C(=O)C4)cc23)c(C)c1` [Compound 53, 4-[3-(2,4-dimethylbenzenesulfonyl)-5-oxo-4H,5H-[1,2,3]triazolo[1,5-a]quinazolin-8-yl]-1-methylpiperazin-2-one], the “Ratio IC50 (in presence of HSA)/IC50” value was “++ (ratio ≤ 125)”. The compound also showed an IC50 under setting [1] of 21.4 to 107 µM. The compound further showed an IC50 under setting [2] of less than 2.14 µM.
As to `Cc1ccc(S(=O)(=O)c2nnn3c2[nH]c(=O)c2ccc(N4CCn5ccnc5C4)cc23)c(C)c1` [Compound 54, 3-(2,4-dimethylbenzenesulfonyl)-8-{5H,6H,7H,8H-imidazo[1,2-a]pyrazin-7-yl}-4H,5H-[1,2,3]triazolo[1,5-a]quinazolin-5-one], the “Ratio IC50 (in presence of HSA)/IC50” value is reported as “++ (ratio ≤ 125)”. Moreover, the IC50 under setting [1] was in the range of 21 to 105 µM. Further, the IC50 under setting [2] is 2.1 to 10.5 µM.
In the case of `Cc1ccc(S(=O)(=O)c2nnn3c2[nH]c(=O)c2ccc(N4CCN(C5COC5)CC4)cc23)c(C)c1` [Compound 55, 3-(2,4-dimethylbenzenesulfonyl)-8-[4-(oxetan-3-yl)piperazin-1-yl]-4H,5H-[1,2,3]triazolo[1,5-a]quinazolin-5-one], the “Ratio IC50 (in presence of HSA)/IC50” value was “++ (ratio ≤ 125)”. Under setting [1], the IC50 is less than 20.2 µM. The same compound showed an IC50 under setting [2] of less than 2.02 µM.
For the compound `Cc1ccc(S(=O)(=O)c2n[nH]n3c2nc(=O)c2ccc(N4CCN(C5CCOCC5)CC4)cc23)c(C)c1` [Compound 56, 3-(2,4-dimethylbenzenesulfonyl)-8-[4-(oxan-4-yl)piperazin-1-yl]-1H,5H-[1,2,3]triazolo[1,5-a]quinazolin-5-one], the “Ratio IC50 (in presence of HSA)/IC50” value is “+++ (ratio ≤ 25)”. The same compound had an IC50 under setting [1] of 19.1 to 95.7 µM. Under setting [2], this compound displayed an IC50 of less than 1.91 µM.
`Cc1ccc(S(=O)(=O)c2nnn3c2[nH]c(=O)c2ccc(N4CCN(CCN)CC4)cc23)c(C)c1` [Compound 57, 8-[4-(2-aminoethyl)piperazin-1-yl]-3-(2,4-dimethylbenzenesulfonyl)-4H,5H-[1,2,3]triazolo[1,5-a]quinazolin-5-one]: the “Ratio IC50 (in presence of HSA)/IC50” value is given as “+++ (ratio ≤ 25)”. The half-maximal inhibitory concentration (IC50) under setting [1] is 20.8 to 104 µM. For the same compound, the IC50 under setting [2] fell in the range of 2.08 to 10.4 µM.
For the compound `CCN(CC)CCC(=O)N1CCN(c2ccc3c(=O)[nH]c4c(S(=O)(=O)c5ccc(C)cc5C)nnn4c3c2)CC1` [Compound 58, 8-{4-[3-(diethylamino)propanoyl]piperazin-1-yl}-3-(2,4-dimethylbenzenesulfonyl)-4H,5H-[1,2,3]triazolo[1,5-a]quinazolin-5-one], the half-maximal inhibitory concentration (IC50) is, setting by setting: under setting [1], 17.7 to 88.4 µM; under setting [2], 1.77 to 8.84 µM.
For `Cc1ccc(S(=O)(=O)c2n[nH]n3c2nc(=O)c2ccc(N4CCN(C5CCN(C)CC5)CC4)cc23)c(C)c1` [Compound 59, 3-(2,4-dimethylbenzenesulfonyl)-8-[4-(1-methylpiperidin-4-yl)piperazin-1-yl]-1H,5H-[1,2,3]triazolo[1,5-a]quinazolin-5-one], the “Ratio IC50 (in presence of HSA)/IC50” value was “+++ (ratio ≤ 25)”. In addition, the IC50 under setting [1] lay in the range of 18.7 to 93.3 µM. Further, under setting [2], the IC50 fell in the range of 1.87 to 9.33 µM.
For the compound `Cc1ccc(S(=O)(=O)c2nnn3c2[nH]c(=O)c2ccc(N4CCN(C5CC5)CC4)cc23)c(C)c1` [Compound 60, 8-(4-cyclopropylpiperazin-1-yl)-3-(2,4-dimethylbenzenesulfonyl)-4H,5H-[1,2,3]triazolo[1,5-a]quinazolin-5-one], the “Ratio IC50 (in presence of HSA)/IC50” value is “++ (ratio ≤ 125)”. Also, under setting [1], the IC50 lay in the range of 20.9 to 104 µM. Further, under setting [2], the IC50 was less than 2.09 µM.
Regarding `Cc1ccc(S(=O)(=O)c2nnn3c2[nH]c(=O)c2ccc(N4CC5(CC(C(=O)O)C5)C4)cc23)c(C)c1` [Compound 63, 2-[3-(2,4-Dimethyl-benzenesulfonyl)-5-oxo-4,5-dihydro-[1,2,3]triazolo[1,5-a]quinazolin-8-yl]-2-aza-spiro[3.3]heptane-6-carboxylic acid], the “Ratio IC50 (in presence of HSA)/IC50” value is “+++ (ratio ≤ 25)”. Moreover, the half-inhibitory concentration (IC50) under setting [1] is less than 20.3 µM. The same compound yielded an IC50 under setting [2] of less than 2.03 µM.
With `Cc1ccc(S(=O)(=O)c2nnn3c2[nH]c(=O)c2ccc(N4CCC(C(=O)O)CC4)cc23)c(C)c1` [Compound 64, 1-[3-(2,4-Dimethyl-benzenesulfonyl)-5-oxo-4,5-dihydro-[1,2,3]triazolo[1,5-a]quinazolin-8-yl]-piperidine-4-carboxylic acid], the “Ratio IC50 (in presence of HSA)/IC50” value is given as “+++ (ratio ≤ 25)”. In addition, under setting [1], the half-inhibitory concentration (IC50) is less than 20.8 µM. Under setting [2], the half-maximal inhibitory concentration (IC50) is less than 2.08 µM.

The values above are taken from patent US20250213575A1, “8-HETEROCYCLIC-3-(PHENYLSULFONYL)-[1,2,3]TRIAZOLO[1,5A]QUINAZOLIN-5(4H)-ONE DERIVATIVES AS ANTI-BACTERIALS” (priority 2022, published 2025).
